Experimental data published in patent US11377442B2, “Small molecule agonists and antagonists of NR2F6 activity” (ZANDER THERAPEUTICS, INC., priority 2016, dated 2022).
Like-named read-outs stand apart in the source and are kept apart here. Each block holds one molecule with its values, some of them ahead of it.

Key:
Type in all cases: cell-based
[1] = target: T1, NR2F6 (Homo sapiens, UniProt P10588); test: NR2F6 agonist screening, Firefly signal cmpd/DMSO
T1 construct: expressed in transfected cells; also transient transfection
T1 sequence (P10588 1-404): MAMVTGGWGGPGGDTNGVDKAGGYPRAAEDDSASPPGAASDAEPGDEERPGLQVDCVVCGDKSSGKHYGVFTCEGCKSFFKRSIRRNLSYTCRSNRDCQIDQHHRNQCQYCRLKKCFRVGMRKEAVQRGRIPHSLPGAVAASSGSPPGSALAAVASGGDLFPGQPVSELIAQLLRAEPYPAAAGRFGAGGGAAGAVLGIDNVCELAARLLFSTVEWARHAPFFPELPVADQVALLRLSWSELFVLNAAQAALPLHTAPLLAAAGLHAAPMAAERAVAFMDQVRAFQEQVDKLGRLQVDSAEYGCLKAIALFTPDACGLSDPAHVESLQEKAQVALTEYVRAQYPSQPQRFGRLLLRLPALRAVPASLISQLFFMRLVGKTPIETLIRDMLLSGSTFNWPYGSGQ

[2] = tested on: HEK293 pGL4; test: Firefly_pGL signal, cmpd/DMSO (pGL4 control cells); settings: Homo sapiens
[3] = tested on: Renilla; test: Renilla signal in NR2F6 agonist screening, cmpd/DMSO; settings: Renilla, F4
[4] = target: T2, NR2F6 LBD (Homo sapiens, UniProt P10588); test: NR2F6 LBD transient transfection; settings: LBD
T2 construct: expressed in transfected cells
T2 sequence (P10588 165-393 limits assumed): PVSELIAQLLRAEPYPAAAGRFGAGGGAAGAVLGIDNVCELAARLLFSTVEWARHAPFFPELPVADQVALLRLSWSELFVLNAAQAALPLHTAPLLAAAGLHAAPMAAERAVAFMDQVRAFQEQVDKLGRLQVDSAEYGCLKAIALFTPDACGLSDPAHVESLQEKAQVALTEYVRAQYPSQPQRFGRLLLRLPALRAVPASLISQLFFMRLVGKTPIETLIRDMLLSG
Method in brief: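 LBD-transfected cells treated at 40, 10, 2 and 0.5 μM (4 replicates); cytotoxicity measured in parallel, normalized to DMSO (0%) and zero signal (100%). Higher concentrations excluded where signal loss reflected toxicity.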

[5] = HEK293, 0.5 uM, pGL4, read-out: Firefly pGL4, cmpd/DMSO (mean)
[6] = HEK293, 2 uM, pGL4, read-out: Firefly pGL4, cmpd/DMSO (mean)
[7] = HEK293, 10 uM, pGL4, read-out: Firefly pGL4, cmpd/DMSO (mean)
[8] = HEK293, 40 uM, pGL4, read-out: Firefly pGL4, cmpd/DMSO (mean)
[9] = HEK293, pGL4, 1% FBS, 0.5 uM, read-out: Firefly, pGL4, 1% FBS, cmpd/DMSO (mean)
[10] = HEK293, pGL4, 1% FBS, 2 uM, read-out: Firefly, pGL4, 1% FBS, cmpd/DMSO (mean)
[11] = HEK293, pGL4, 1% FBS, 10 uM, read-out: Firefly, pGL4, 1% FBS, cmpd/DMSO (mean)
[12] = HEK293, pGL4, 1% FBS, 40 uM, read-out: Firefly, pGL4, 1% FBS, cmpd/DMSO (mean)
[13] = HEK293, pGL4, 10% FBS, 0.5 uM, read-out: Firefly, pGL4, 10% FBS, cmpd/DMSO (mean)
[14] = HEK293, pGL4, 10% FBS, 2 uM, read-out: Firefly, pGL4, 10% FBS, cmpd/DMSO (mean)
[15] = HEK293, pGL4, 10% FBS, 10 uM, read-out: Firefly, pGL4, 10% FBS, cmpd/DMSO (mean)
[16] = HEK293, pGL4, 10% FBS, 40 uM, read-out: Firefly, pGL4, 10% FBS, cmpd/DMSO (mean)
[17] = read-out: Renilla, F4, cmpd/DMSO (mean)
[18] = 1% FBS, read-out: Renilla, F4, 1% FBS, cmpd/DMSO (mean)
[19] = 10% FBS, read-out: Renilla, F4, 10% FBS, cmpd/DMSO (mean)

Firefly F4, cmpd/DMSO (mean) ([1]; 0.5 uM): 1.1
Firefly F4, cmpd/DMSO (mean) ([1]; 2 uM): 1.1
Firefly F4, cmpd/DMSO (mean) ([1]; 10 uM): 2.0
Firefly F4, cmpd/DMSO (mean) ([1]; 40 uM): 2.7
F4, Firefly/Renilla for S/B(F4) > 3 ([1]; 10% FBS, 40 uM): 2.0
Firefly, F4/pGL4 for S/B(F4) > 3 ([1]; 10% FBS, 40 uM): 2.7
Firefly, F4, 1% FBS, cmpd/DMSO (mean) ([1]; 0.5 uM): 1.0
Firefly, F4, 1% FBS, cmpd/DMSO (mean) ([1]; 2 uM): 1.1
Firefly, F4, 1% FBS, cmpd/DMSO (mean) ([1]; 10 uM): 1.6
Firefly, F4, 1% FBS, cmpd/DMSO (mean) ([1]; 40 uM): 2.1
Firefly, F4, 10% FBS, cmpd/DMSO (mean) ([1]; 10% FBS, 0.5 uM): 1.6
Firefly, F4, 10% FBS, cmpd/DMSO (mean) ([1]; 10% FBS, 2 uM): 1.6
Firefly, F4, 10% FBS, cmpd/DMSO (mean) ([1]; 10% FBS, 10 uM): 1.1
Firefly, F4, 10% FBS, cmpd/DMSO (mean) ([1]; 10% FBS, 40 uM): 3.6
Firefly LBD, cmpd/DMSO (mean) ([4]; 0.5 uM): 1.1
Firefly LBD, cmpd/DMSO (mean) ([4]; 2 uM): 1.4
Firefly LBD, cmpd/DMSO (mean) ([4]; 10 uM): 1.6
Firefly LBD, cmpd/DMSO (mean) ([4]; 40 uM): 1.9
SMILES: O=S1(=O)C[C@H](NC2CCCCC2)[C@@H](S(=O)(=O)c2ccccc2)C1 [Compound D111]
fold induction at 0.5 µM [2, 5]: 0.9
fold induction at 2 µM [2, 6]: 1.4
fold induction at 10 µM [2, 7]: 1.5
fold induction at 40 µM [2, 8]: 1.8
fold induction at 0.5 µM [2, 9]: 1
fold induction at 2 µM [2, 10]: 1.2
fold induction at 10 µM [2, 11]: 1.2
fold induction at 40 µM [2, 12]: 1.2
fold induction at 0.5 µM [2, 13]: 1.2
fold induction at 2 µM [2, 14]: 1.2
fold induction at 10 µM [2, 15]: 1.3
fold induction at 40 µM [2, 16]: 1.3
fold induction at 0.5 µM [3, 17]: 1
fold induction at 2 µM [3, 17]: 1
fold induction at 10 µM [3, 17]: 1.1
fold induction at 40 µM [3, 17]: 1.4
fold induction at 0.5 µM [3, 18]: 1.1
fold induction at 2 µM [3, 18]: 1.1
fold induction at 10 µM [3, 18]: 1.3
fold induction at 40 µM [3, 18]: 1.7
fold induction at 0.5 µM [3, 19]: 1.1
fold induction at 2 µM [3, 19]: 1.1
fold induction at 10 µM [3, 19]: 1.2
fold induction at 40 µM [3, 19]: 1.8

Firefly F4, cmpd/DMSO (mean) ([1]; 0.5 uM): 1.0
Firefly F4, cmpd/DMSO (mean) ([1]; 2 uM): 1.3
Firefly F4, cmpd/DMSO (mean) ([1]; 10 uM): 1.3
Firefly F4, cmpd/DMSO (mean) ([1]; 40 uM): 1.9
Firefly, F4, 1% FBS, cmpd/DMSO (mean) ([1]; 0.5 uM): 1.2
Firefly, F4, 1% FBS, cmpd/DMSO (mean) ([1]; 2 uM): 1.1
Firefly, F4, 1% FBS, cmpd/DMSO (mean) ([1]; 10 uM): 1.1
Firefly, F4, 1% FBS, cmpd/DMSO (mean) ([1]; 40 uM): 1.8
Firefly, F4, 10% FBS, cmpd/DMSO (mean) ([1]; 10% FBS, 0.5 uM): 1.2
Firefly, F4, 10% FBS, cmpd/DMSO (mean) ([1]; 10% FBS, 2 uM): 1.0
Firefly, F4, 10% FBS, cmpd/DMSO (mean) ([1]; 10% FBS, 10 uM): 1.1
Firefly, F4, 10% FBS, cmpd/DMSO (mean) ([1]; 10% FBS, 40 uM): 2.2
Firefly LBD, cmpd/DMSO (mean) ([4]; 0.5 uM): 1.0
Firefly LBD, cmpd/DMSO (mean) ([4]; 2 uM): 1.4
Firefly LBD, cmpd/DMSO (mean) ([4]; 10 uM): 1.3
Firefly LBD, cmpd/DMSO (mean) ([4]; 40 uM): 2.1
SMILES: O=S1(=O)C[C@H](NCc2ccncc2)[C@@H](S(=O)(=O)c2cccs2)C1 [Compound D108]
fold induction at 0.5 µM [2, 5]: 0.9
fold induction at 2 µM [2, 6]: 1
fold induction at 10 µM [2, 7]: 1.2
fold induction at 40 µM [2, 8]: 1.5
fold induction at 0.5 µM [2, 9]: 1.5
fold induction at 2 µM [2, 10]: 1.2
fold induction at 10 µM [2, 11]: 1.2
fold induction at 40 µM [2, 12]: 1.1
fold induction at 0.5 µM [2, 13]: 1.1
fold induction at 2 µM [2, 14]: 1.1
fold induction at 10 µM [2, 15]: 1.1
fold induction at 40 µM [2, 16]: 1.4
fold induction at 0.5 µM [3, 17]: 1
fold induction at 2 µM [3, 17]: 1
fold induction at 10 µM [3, 17]: 1.1
fold induction at 40 µM [3, 17]: 1.2
fold induction at 0.5 µM [3, 18]: 1
fold induction at 2 µM [3, 18]: 1.2
fold induction at 10 µM [3, 18]: 1.1
fold induction at 40 µM [3, 18]: 1.4
fold induction at 0.5 µM [3, 19]: 1
fold induction at 2 µM [3, 19]: 0.9
fold induction at 10 µM [3, 19]: 1
fold induction at 40 µM [3, 19]: 1.4
